Literature values, collected in patent US9198881B2, “Equine nutritional supplement” (priority 2011, dated 2015).
Read-outs that look alike come from different tables or passages of the source.

System: nitric oxide
Details: humans, 8 weeks of supervised aerobic training, FIGS. 4 and 5

## Glycine Propionyl L-Carnitine Hydrochloride
1.5 grams per day
  nitric oxide levels: statistically significant enhancement
4.5 grams per day
  nitric oxide levels: statistically significant enhancement
